Assay results taken from patent US20250353891A1 (MEDIMMUNE LIMITED, priority 2022, published 2025).
Starred links: 1 amine or outer side, 2 acyl side, 3 side chain; linkers in the order of their positions; H or OH if unused. Non-standard residues stand in square brackets, D forms with d. Residues, ends and D or L forms follow the SMILES beside them. Groups on a side chain read outwards from the residue. *: point of attachment. C20 diacid = O=C(O)CCCCCCCCCCCCCCCCCCC(=O)*; C18 diacid = O=C(O)CCCCCCCCCCCCCCCCC(=O)*; γGlu = O=C(O)[C@H](CCC(=O)[*:2])N[*:1]; αMeF = C[C@](N)(Cc1ccccc1)C(=O)O; AEEA = NCCOCCOCC(=O)O; Aib = CC(C)(N)C(=O)O

Assays:
[1] = target: human GLP-1 receptor (hGLP-1R) (Homo sapiens, UniProt P43220); assay: cAMP production (HTRF) in CHO cells expressing hGLP-1R; type: cell-based; set-up: expressed in transfected cells; conditions: for EC50: Table 6, peptides modified at position 17, cAMP in CHO hGLP-1R cells, geometric mean, read-out: hGLP-1R EC50; for % Relative Potency Ratio: Table 6, % GLP-1R activity relative to GLP-1 / % GlucR activity relative to glucagon
Sequence of human GLP-1 receptor (hGLP-1R) (P43220 24-463): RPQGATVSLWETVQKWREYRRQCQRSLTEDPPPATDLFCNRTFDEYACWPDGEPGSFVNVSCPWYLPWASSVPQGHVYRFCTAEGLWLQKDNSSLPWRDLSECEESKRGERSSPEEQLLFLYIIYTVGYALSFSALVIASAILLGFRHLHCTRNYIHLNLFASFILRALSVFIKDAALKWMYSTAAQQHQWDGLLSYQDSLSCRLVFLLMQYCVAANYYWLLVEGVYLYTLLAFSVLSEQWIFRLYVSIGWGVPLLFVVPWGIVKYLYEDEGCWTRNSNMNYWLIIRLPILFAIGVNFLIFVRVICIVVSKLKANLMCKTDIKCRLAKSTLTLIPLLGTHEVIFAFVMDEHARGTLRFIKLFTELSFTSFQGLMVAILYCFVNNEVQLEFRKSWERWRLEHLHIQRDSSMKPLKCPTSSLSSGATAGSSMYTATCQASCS
Procedure, shortened: (§1)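 Read-out: HTRF cAMP (anti-cAMP cryptate donor, cAMP-d2 acceptor in conjugate/lysis buffer), converted to % Delta F and fitted by 4-parameter logistic for EC50. Cell densities were 1×10^5 cells/mL (hGLP-1R) or 2×10^5 cells/mL (hGCGR). Stimulation lasted 30 min at room temperature.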

[2] = target: human glucagon receptor (hGCGR) (Homo sapiens, UniProt P47871); assay: cAMP production (HTRF) in CHO cells expressing hGCGR; type: cell-based; set-up: expressed in transfected cells; conditions: Table 6, peptides modified at position 17; cAMP in CHO hGCGR cells; geometric mean; read-out: hGluc-R EC50
Sequence of human glucagon receptor (hGCGR) (P47871 26-477): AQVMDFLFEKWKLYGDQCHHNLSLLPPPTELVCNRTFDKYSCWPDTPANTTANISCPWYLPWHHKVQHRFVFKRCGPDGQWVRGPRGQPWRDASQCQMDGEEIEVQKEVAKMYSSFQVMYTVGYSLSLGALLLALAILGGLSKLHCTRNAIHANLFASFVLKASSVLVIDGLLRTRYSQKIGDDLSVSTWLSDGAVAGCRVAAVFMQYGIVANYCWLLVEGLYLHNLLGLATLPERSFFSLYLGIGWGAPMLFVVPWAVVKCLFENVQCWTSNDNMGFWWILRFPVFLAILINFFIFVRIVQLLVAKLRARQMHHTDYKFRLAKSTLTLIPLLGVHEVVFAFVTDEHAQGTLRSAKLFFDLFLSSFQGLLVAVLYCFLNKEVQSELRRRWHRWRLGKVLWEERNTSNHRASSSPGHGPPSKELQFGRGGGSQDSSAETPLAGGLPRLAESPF
Procedure, shortened: as §1

EC50 [1] [nM]	% Relative Potency Ratio [1]	EC50 [2] [nM]	SMILES
0.178	1.9	0.169	CC(C)C[C@H](NC(=O)[C@H](Cc1c[nH]c2ccccc12)NC(=O)[C@H](CCC(N)=O)NC(=O)[C@@H](NC(=O)[C@H](Cc1ccccc1)NC(=O)[C@H](CC(=O)O)NC(=O)[C@H](CCC(N)=O)NC(=O)[C@H](C)NC(=O)[C@H](CCCNC(=N)N)NC(=O)[C@H](CCCCNC(=O)COCCOCCNC(=O)COCCOCCNC(=O)CC[C@H](NC(=O)CCCCCCCCCCCCCCCCC(=O)O)C(=O)O)NC(=O)[C@@H](NC(=O)[C@H](CC(=O)O)NC(=O)[C@H](CC(C)C)NC(=O)[C@](C)(Cc1ccccc1)NC(=O)[C@H](CCCCN)NC(=O)[C@H](CO)NC(=O)[C@@H](NC(=O)[C@H](CC(=O)O)NC(=O)[C@H](CO)NC(=O)[C@@H](NC(=O)[C@H](Cc1ccccc1)NC(=O)[C@@H](NC(=O)CNC(=O)[C@H](CCC(N)=O)NC(=O)C(C)(C)NC(=O)[C@@H](N)Cc1c[nH]cn1)[C@@H](C)O)[C@@H](C)O)C(C)C)[C@@H](C)O)C(C)C)C(=O)N[C@@H](CC(C)C)C(=O)NC(C)(C)C(=O)N[C@@H](CCC(=O)O)C(=O)O [Peptide 483]
0.339	1.0	0.169	CC(C)C[C@H](NC(=O)[C@H](Cc1c[nH]c2ccccc12)NC(=O)[C@H](CCC(N)=O)NC(=O)[C@@H](NC(=O)[C@H](Cc1ccccc1)NC(=O)[C@H](CC(=O)O)NC(=O)[C@H](CCC(N)=O)NC(=O)[C@H](C)NC(=O)[C@H](CCCNC(=N)N)NC(=O)[C@H](CCCCNC(=O)COCCOCCNC(=O)COCCOCCNC(=O)CC[C@H](NC(=O)CCCCCCCCCCCCCCCCCCC(=O)O)C(=O)O)NC(=O)[C@@H](NC(=O)[C@H](CC(=O)O)NC(=O)[C@H](CC(C)C)NC(=O)[C@](C)(Cc1ccccc1)NC(=O)[C@H](CCCCN)NC(=O)[C@H](CO)NC(=O)[C@@H](NC(=O)[C@H](CC(=O)O)NC(=O)[C@H](CO)NC(=O)[C@@H](NC(=O)[C@H](Cc1ccccc1)NC(=O)[C@@H](NC(=O)CNC(=O)[C@H](CCC(N)=O)NC(=O)C(C)(C)NC(=O)[C@@H](N)Cc1c[nH]cn1)[C@@H](C)O)[C@@H](C)O)C(C)C)[C@@H](C)O)C(C)C)C(=O)N[C@@H](CC(C)C)C(=O)NC(C)(C)C(=O)N[C@@H](CCC(=O)O)C(=O)O [Peptide 484] (H-H[Aib]QGTFTSDVSK[αMeF]LDTK([AEEA-AEEA-γGlu-C20 diacid])RAQDFVQWLL[Aib]E-OH; N-terminus assumed)
0.219	0.8	0.0904	CC(C)C[C@H](NC(=O)[C@H](Cc1c[nH]c2ccccc12)NC(=O)[C@H](CCC(N)=O)NC(=O)[C@@H](NC(=O)[C@H](Cc1ccccc1)NC(=O)[C@H](CC(=O)O)NC(=O)[C@H](CCC(N)=O)NC(=O)[C@H](C)NC(=O)[C@H](CCCNC(=N)N)NC(=O)[C@H](CCCCNC(=O)COCCOCCNC(=O)COCCOCCNC(=O)CC[C@H](NC(=O)CCCCCCCCCCCCCCCCCCC(=O)O)C(=O)O)NC(=O)[C@@H](NC(=O)[C@H](CC(=O)O)NC(=O)[C@H](CC(C)C)NC(=O)[C@](C)(Cc1ccccc1)NC(=O)[C@H](CCCCN)NC(=O)[C@H](CO)NC(=O)[C@@H](NC(=O)[C@H](CC(=O)O)NC(=O)[C@H](CO)NC(=O)[C@@H](NC(=O)[C@H](Cc1ccccc1)NC(=O)[C@@H](NC(=O)CNC(=O)[C@H](CCC(N)=O)NC(=O)C(C)(C)NC(=O)[C@@H](N)Cc1c[nH]cn1)[C@@H](C)O)[C@@H](C)O)C(C)C)[C@@H](C)O)C(C)C)C(=O)N[C@@H](CC(C)C)C(=O)NC(C)(C)C(=O)N[C@@H](CCC(=O)O)C(N)=O [Peptide 485] (H-H[Aib]QGTFTSDVSK[αMeF]LDTK([AEEA-AEEA-γGlu-C20 diacid])RAQDFVQWLL[Aib]E-NH2; N-terminus assumed)
0.0228	14.5	0.168	CC(C)C[C@H](NC(=O)[C@H](Cc1c[nH]c2ccccc12)NC(=O)[C@H](CCC(N)=O)NC(=O)[C@@H](NC(=O)[C@H](Cc1ccccc1)NC(=O)[C@H](CC(=O)O)NC(=O)[C@H](CCCNC(=N)N)NC(=O)[C@H](C)NC(=O)[C@H](CCCNC(=N)N)NC(=O)[C@H](CCCCNC(=O)COCCOCCNC(=O)COCCOCCNC(=O)CC[C@H](NC(=O)CCCCCCCCCCCCCCCCC(=O)O)C(=O)O)NC(=O)[C@@H](NC(=O)[C@H](CC(=O)O)NC(=O)[C@H](CC(C)C)NC(=O)[C@](C)(Cc1ccccc1)NC(=O)[C@H](CCCCN)NC(=O)[C@H](CO)NC(=O)[C@@H](NC(=O)[C@H](CC(=O)O)NC(=O)[C@H](CO)NC(=O)[C@@H](NC(=O)[C@H](Cc1ccccc1)NC(=O)[C@@H](NC(=O)CNC(=O)[C@H](CCC(N)=O)NC(=O)C(C)(C)NC(=O)[C@@H](N)Cc1c[nH]cn1)[C@@H](C)O)[C@@H](C)O)C(C)C)[C@@H](C)O)C(C)C)C(=O)N[C@@H](CC(C)C)C(=O)NC(C)(C)C(=O)N[C@H](C(=O)N[C@@H](CCC(=O)O)C(N)=O)[C@@H](C)O [Peptide 489] (H-H[Aib]QGTFTSDVSK[αMeF]LDTK([AEEA-AEEA-γGlu-C18 diacid])RARDFVQWLL[Aib]TE-NH2; N-terminus assumed)

More lines, now with the values behind:

SMILES	EC50 [1] [nM]	% Relative Potency Ratio [1]	EC50 [2] [nM]
CC(C)C[C@H](NC(=O)[C@H](Cc1c[nH]c2ccccc12)NC(=O)[C@H](CCC(N)=O)NC(=O)[C@@H](NC(=O)[C@H](Cc1ccccc1)NC(=O)[C@H](CC(=O)O)NC(=O)[C@H](CCC(N)=O)NC(=O)[C@H](C)NC(=O)[C@H](CCCNC(=N)N)NC(=O)[C@H](CCCCNC(=O)COCCOCCNC(=O)COCCOCCNC(=O)CC[C@H](NC(=O)CCCCCCCCCCCCCCCCC(=O)O)C(=O)O)NC(=O)[C@H](CO)NC(=O)[C@H](CCC(=O)O)NC(=O)[C@H](CC(C)C)NC(=O)[C@](C)(Cc1ccccc1)NC(=O)[C@H](CCCCN)NC(=O)[C@H](CO)NC(=O)[C@@H](NC(=O)[C@H](CC(=O)O)NC(=O)[C@H](CO)NC(=O)[C@@H](NC(=O)[C@H](Cc1ccccc1)NC(=O)[C@@H](NC(=O)CNC(=O)[C@H](CCC(N)=O)NC(=O)C(C)(C)NC(=O)[C@@H](N)Cc1c[nH]cn1)[C@@H](C)O)[C@@H](C)O)C(C)C)C(C)C)C(=O)N[C@@H](CC(C)C)C(=O)NC(C)(C)C(=O)N[C@@H](CCC(=O)O)C(=O)O [Peptide 482] (H-H[Aib]QGTFTSDVSK[αMeF]LESK([AEEA-AEEA-γGlu-C18 diacid])RAQDFVQWLL[Aib]E-OH; N-terminus assumed)	0.19	7.2	0.691
CC(C)C[C@H](NC(=O)[C@H](CC(=O)O)NC(=O)[C@H](CC(C)C)NC(=O)[C@](C)(Cc1ccccc1)NC(=O)[C@H](CCCCN)NC(=O)[C@H](CO)NC(=O)[C@@H](NC(=O)[C@H](CC(=O)O)NC(=O)[C@H](CO)NC(=O)[C@@H](NC(=O)[C@H](Cc1ccccc1)NC(=O)[C@@H](NC(=O)CNC(=O)[C@H](CCC(N)=O)NC(=O)C(C)(C)NC(=O)[C@@H](N)Cc1c[nH]cn1)[C@@H](C)O)[C@@H](C)O)C(C)C)C(=O)N[C@@H](CCCCNC(=O)COCCOCCNC(=O)COCCOCCNC(=O)CC[C@H](NC(=O)CCCCCCCCCCCCCCCCCCC(=O)O)C(=O)O)C(=O)N[C@@H](CCCNC(=N)N)C(=O)N[C@@H](C)C(=O)N[C@@H](CCC(N)=O)C(=O)N[C@@H](CC(=O)O)C(=O)N[C@@H](Cc1ccccc1)C(=O)N[C@H](C(=O)N[C@@H](CCCNC(=N)N)C(=O)N[C@@H](Cc1c[nH]c2ccccc12)C(=O)N[C@@H](CC(C)C)C(=O)N[C@@H](CC(C)C)C(=O)NC(C)(C)C(=O)N[C@@H](CCC(=O)O)C(=O)O)C(C)C [Peptide 486]	0.42	0.8	0.166
CC(C)C[C@H](NC(=O)[C@H](Cc1c[nH]c2ccccc12)NC(=O)[C@H](CCC(N)=O)NC(=O)[C@@H](NC(=O)[C@H](Cc1ccccc1)NC(=O)[C@H](CC(=O)O)NC(=O)[C@H](CCCNC(=N)N)NC(=O)[C@H](C)NC(=O)[C@H](CCCNC(=N)N)NC(=O)[C@H](CCCCNC(=O)COCCOCCNC(=O)COCCOCCNC(=O)CC[C@H](NC(=O)CCCCCCCCCCCCCCCCC(=O)O)C(=O)O)NC(=O)[C@@H](NC(=O)[C@H](CC(=O)O)NC(=O)[C@H](CC(C)C)NC(=O)[C@](C)(Cc1ccccc1)NC(=O)[C@H](CCCCN)NC(=O)[C@H](CO)NC(=O)[C@@H](NC(=O)[C@H](CC(=O)O)NC(=O)[C@H](CO)NC(=O)[C@@H](NC(=O)[C@H](Cc1ccccc1)NC(=O)[C@@H](NC(=O)CNC(=O)[C@H](CCC(N)=O)NC(=O)C(C)(C)NC(=O)[C@@H](N)Cc1c[nH]cn1)[C@@H](C)O)[C@@H](C)O)C(C)C)[C@@H](C)O)C(C)C)C(=O)N[C@@H](CC(C)C)C(=O)NC(C)(C)C(=O)N[C@H](C(=O)N[C@@H](CCC(=O)O)C(=O)O)[C@@H](C)O [Peptide 487] (H-H[Aib]QGTFTSDVSK[αMeF]LDTK([AEEA-AEEA-γGlu-C18 diacid])RARDFVQWLL[Aib]TE-OH)	0.0655	5.0	0.164
CC(C)C[C@H](NC(=O)[C@H](Cc1c[nH]c2ccccc12)NC(=O)[C@H](CCC(N)=O)NC(=O)[C@@H](NC(=O)[C@H](Cc1ccccc1)NC(=O)[C@H](CC(=O)O)NC(=O)[C@H](CCCNC(=N)N)NC(=O)[C@H](C)NC(=O)[C@H](CCCNC(=N)N)NC(=O)[C@H](CCCCNC(=O)COCCOCCNC(=O)COCCOCCNC(=O)CC[C@H](NC(=O)CCCCCCCCCCCCCCCCCCC(=O)O)C(=O)O)NC(=O)[C@@H](NC(=O)[C@H](CC(=O)O)NC(=O)[C@H](CC(C)C)NC(=O)[C@](C)(Cc1ccccc1)NC(=O)[C@H](CCCCN)NC(=O)[C@H](CO)NC(=O)[C@@H](NC(=O)[C@H](CC(=O)O)NC(=O)[C@H](CO)NC(=O)[C@@H](NC(=O)[C@H](Cc1ccccc1)NC(=O)[C@@H](NC(=O)CNC(=O)[C@H](CCC(N)=O)NC(=O)C(C)(C)NC(=O)[C@@H](N)Cc1c[nH]cn1)[C@@H](C)O)[C@@H](C)O)C(C)C)[C@@H](C)O)C(C)C)C(=O)N[C@@H](CC(C)C)C(=O)NC(C)(C)C(=O)N[C@H](C(=O)N[C@@H](CCC(=O)O)C(=O)O)[C@@H](C)O [Peptide 488] (H-H[Aib]QGTFTSDVSK[αMeF]LDTK([AEEA-AEEA-γGlu-C20 diacid])RARDFVQWLL[Aib]TE-OH; N-terminus assumed)	0.202	2.9	0.301
